From patent US20260294836A1, “REMOTE CONTROL AND QUANTITATIVE MONITORING OF DRUG RELEASE FROM NANOPARTICLES BASED ON MAGNETIC PARTICLE IMAGING” (Board of Trustees of Michigan State University, priority 2022, published 2026) come the findings set out here.

Type in all cases: in vivo, Balb/c mice
Assay [1] has as its system 4T1 tumor. The assay is described as follows: Short-term tumor inhibition (BLI, tumor size, 15 days). The settings on record: DOX alone. The method, then:
(§1) The 4T1 tumor-bearing Balb/c mice may be randomly divided into six groups. In at least one example embodiment, each group may include three mice. In at least one example embodiment, a first group may receive PLGA. In at least one example embodiment, a second group may receive SPNCD. In at least one example embodiment, a third group may receive SPNCD and may be irradiated with NIR for 1 minute. In at least one example embodiment, a fourth group may receive SPNCD and may be irradiated with NIR for 7 minutes. In at least one example embodiment, a fifth group may receive SPNC and may be irradiated with NIR for 1 minute. In at least one example embodiment, a sixth group may receive DOX.
(§2) Once tumor volumes reach or become greater than 100 mm^3, the mice may be intratumorally injected with the various conditions (e.g., PLGA in the instance of the first group, SPNCD in the instance of the second group, SPNCD+NIR-1 minute in the instance of the third group, SPNCD+NIR-7 minute in the instances of the fourth group, SPNC+NIR-1 minute in the instance of the fifth group, and DOX in the instance of the sixth group) every 2 days for 15 days. Tumor size and mouse body weight may be measured every 2 days for 15 days in total. […]

In assay [2] the test system is 4T1 tumor. As to the kind of experiment: Apoptosis in tumors (flow cytometry and TUNNEL assay). The settings on record: no NIR. The method, then:
as §1, §2

The subject of assay [3] is 4T1 tumor. As to the kind of experiment: Long-term tumor inhibition and metastasis, 4T1 tumor mice. The following applies: DOX alone; PBS 30 days. The method, then:
The 4T1 cells may be implanted into the mammary fat pads of six-week-old female Balb/c mice. In at least one example embodiment, about 1×10^6 cells may be implanted per mouse.
4T1 tumor-bearing Balb/c mice and BT549 tumor-bearing Nude mice ay be randomly divided into three groups. In at least one example embodiment, each group may include eight mice (PBS, SPNCD+NIR 7 min, DOX). Once tumor volumes reach or become greater than 100 mm^3, 4T1 tumor-bearing mice (DOX: 0.122 mg/kg) and BT549 tumor-bearing mice (DOX: 1.5 mg/kg) may be intratumorally injected with agents from the various conditions every 2 days for 15 days followed by NIR irradiation (808 nm, 1W). In at least one example embodiment, the DOX dose may be determined based on the IC50 of each cell line. Tumor size and mouse weight may be measured every 3 days for 80 days in total. Bioluminescence imaging (e.g., PerkinElmer, USA) may be conducted every 3 days by intraperitoneally injected D luciferin (e.g., 150 mg/kg) into 4T1 tumor-bearing Balb/c mice to observe the metastasis of 4T1 tumor-bearing Balb/c mice.
Tumor growth, mouse bodyweight, and tumor metastasis may be monitored for 80 days in 4T1 DOX-sensitive and BT459 DOX-resistant tumor mice. The mice may be randomly divided into four groups. In at least one example embodiment, each group may include five mice. […]

Assay [4] deals with F4/80-positive TAM. The assay is described as follows: F4/80 immunostaining of tumor sections (TAM accumulation). The following applies: without NIR. The method, then: as §1, §2

Take `COc1cccc2c1C(=O)c1c(O)c3c(c(O)c1C2=O)C[C@@](O)(C(=O)CO)C[C@@H]3O[C@H]1C[C@H](N)[C@H](O)[C@H](C)O1` [DOX, doxorubicin]: the tumor size result in assay [1] is listed as “did not increase in size”. The apoptosis in tumor entry in assay [2] is “induced significant apoptosis”. The compound also showed a time-to-tumor metastasis in assay [3] of 60 days post injection. Besides, the “F4/80-positive TAM accumulation versus PLGA treated groups” value in assay [4] was “increased more”.
